Measurements reported in patent US20250135006A1, “AMPHIPHILIC TLR7/8 ADJUVANTS AND USES THEREOF” (Pfizer Inc., priority 2023, published 2025).
pEC50: −log10 of the molar value.

Columns and labels:
[1] = target: T1, human toll like receptor 8 (hTLR8) (Homo sapiens, UniProt Q9NR97); assay: hTLR8 in-vitro functional assay (HEK-Blue hTLR8 SEAP reporter); type: cell-based; conditions: HEK-Blue hTLR8 cells, overnight incubation
T1 construct: host or cells: HEK293 (HEK-Blue hTLR8)
T1 sequence (Q9NR97 27-1041): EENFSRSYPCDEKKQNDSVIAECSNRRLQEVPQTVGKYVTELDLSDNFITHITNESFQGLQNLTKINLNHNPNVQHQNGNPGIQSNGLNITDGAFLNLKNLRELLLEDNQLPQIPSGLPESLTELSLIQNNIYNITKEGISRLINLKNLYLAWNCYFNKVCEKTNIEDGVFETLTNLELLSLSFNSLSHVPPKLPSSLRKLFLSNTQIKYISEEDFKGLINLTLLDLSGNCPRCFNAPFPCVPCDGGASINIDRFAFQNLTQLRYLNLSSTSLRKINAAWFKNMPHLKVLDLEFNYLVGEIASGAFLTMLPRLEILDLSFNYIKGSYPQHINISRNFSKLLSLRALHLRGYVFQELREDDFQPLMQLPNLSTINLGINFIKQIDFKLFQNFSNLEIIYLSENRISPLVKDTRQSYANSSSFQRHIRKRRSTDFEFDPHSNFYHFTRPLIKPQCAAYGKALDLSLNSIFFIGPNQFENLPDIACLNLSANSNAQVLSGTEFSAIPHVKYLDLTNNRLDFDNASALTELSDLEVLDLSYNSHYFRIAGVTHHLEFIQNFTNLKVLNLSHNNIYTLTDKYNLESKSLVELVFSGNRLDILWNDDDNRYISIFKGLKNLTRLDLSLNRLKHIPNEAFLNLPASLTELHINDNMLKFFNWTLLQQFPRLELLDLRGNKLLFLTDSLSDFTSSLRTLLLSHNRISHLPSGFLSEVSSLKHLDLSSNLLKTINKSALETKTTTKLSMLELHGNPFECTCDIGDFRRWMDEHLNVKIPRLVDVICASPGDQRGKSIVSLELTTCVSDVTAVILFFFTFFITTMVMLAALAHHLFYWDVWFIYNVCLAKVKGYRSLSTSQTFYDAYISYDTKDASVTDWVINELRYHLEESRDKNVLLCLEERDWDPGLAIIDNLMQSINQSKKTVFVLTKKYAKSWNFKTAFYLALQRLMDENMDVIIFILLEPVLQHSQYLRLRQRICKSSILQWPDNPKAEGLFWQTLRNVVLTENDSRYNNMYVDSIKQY

S. pneumoniae serotype 3 = type: in vivo, female Swiss-Webster mice; conditions: mouse

In the case of `CCCCc1nc2c(N)nc3cc(CCCN4CCN(C(=O)CCOCCOCCOCCOCCOCCOCCOCCOCCOCCOCCOCCOCCOCCOCCOCCOCCOCCOCCOCCOCCOCCOCCOCCOCCNC(=O)CCOCCOCCOCCOCCNC(=O)CCCOc5c(C)c(C)c6c(c5C)CC[C@@](C)(CCC[C@H](C)CCC[C@H](C)CCCC(C)C)O6)CC4)ccc3c2n1CC(C)(CO)CO` [Compound 2, N-{75-[4-(3-{4-amino-2-butyl-1-[3-hydroxy-2-(hydroxymethyl)-2-methylpropyl]-1H-imidazo[4,5-c]quinolin-7-yl}propyl)piperazin-1-yl]-75-oxo-3,6,9,12,15,18,21,24,27,30,33,36,39,42,45,48,51,54,57,60,63,66,69,72-tetracosaoxapentaheptacont-1-yl}-17-oxo-20-({(2R)-2,5,7,8-tetramethyl-2-[(4R,8R)-4,8,12-trimethyltridecyl]-3,4-dihydro-2H-chromen-6-yl}oxy)-4,7,10,13-tetraoxa-16-azaicosan-1-amide], the pEC50 [1] was 5.30, the “OPA geometric mean titers (GMT)” value (S. pneumoniae serotype 3; 0.1 μg S. pneumoniae serotype 3-CRM197 antigen with adjuvant (2 nmol; AlPO4 100 μg), IM weeks 0 and 3, sera week 5) was 610 and the “OPA geometric mean titers compared with reference adjuvants” value (S. pneumoniae serotype 3; S. pneumoniae serotype 3 antigen, versus aluminum phosphate and free TLR 7/8 agonist) was “higher average OPA geometric mean titers than aluminum phosphate, as well as the free TLR 7/8 agonist molecule”.
